Values of other authors in patent publication US20010044101A1, “IN VITRO METHOD FOR PREDICTING THE EV[…] OF A PROTEIN TO A DRUG TARGETED THEREAGAINST” (priority 1994, published 2001).
Like-named read-outs stand apart in the source and are kept apart here.

Test system: HIV-1

**Q.** Which results are given for “(-)-2′-deoxy-5-fluoro-3′-thiacytidine [FTC]”?
**A.** IC50 (fourth passage of the wild-type HIV-1 progeny, MT-4 cells, increasing FTC concentration, read-out: IC50 (50% inhibitory concentration)): > 50 µM; IC50 (passage 6 virus, tested at higher compound concentrations, read-out: IC50): > 250 µM; IC50 (second passage of the AZT-resistant HIV-1 progeny, MT-4 cells, increasing FTC concentration, read-out: IC50 (50% inhibitory concentration)): > 50 µM
